From ChEMBL document CHEMBL5113461, “Improving the solubility and antileukemia activity of Wnt/β-catenin signaling inhibitors by disrupting molecular planarity” (Bioorg Med Chem, 2022)
Values after ≈ are worked out from the molar mass of the structure shown.

How the values were obtained:
[1] = Aqueous solubility of the compound in PBS buffer at pH 7.4 incubated for 6 hrs by HPLC analysis; type: physicochemical; settings: pH 7.4, 6 h
[2] = test system: K562; assay: cells; settings: Homo sapiens, K562, 48 h
[3] = test system: K562; assay: Upregulation of axin-1 levels in human K562 cells by Western blot analysis; type: functional, cell-based; settings: dose 0.1-10 µM, DDE = dose-dependent effect
[4] = test system: K562; assay: Downregulation of beta-catenin levels in human K562 cells by Western blot analysis; type: functional, cell-based; settings: dose 0.1-10 µM, DDE = dose-dependent effect

Row | SMILES | solubility [1] [µg/mL] | IC50 [2] [µM] | Activity [3] | Activity [4]
1 | Cc1ccccc1-n1nnc(C(=O)Nc2ccc3ccccc3n2)c1C | 0.11 (≈ 0.32 µM) | > 50 | – | –
2 | Cc1nn(-c2ccccc2Br)c(C)c1C(=O)Nc1ccc2ccccc2n1 | 5.9 (≈ 14 µM) | – | – | –
3 | Cc1c(C(=O)Nc2ccc3ccccc3n2)cnn1-c1ccccc1Br | 0.05 (≈ 0.123 µM) | – | – | –
4 | Cc1ccccc1-n1nc(C)c(C(=O)Nc2ccc3ccccc3n2)c1C | 6.7 (≈ 18.8 µM) | – | – | –
5 | CCc1ccccc1-n1nc(C)c(C(=O)Nc2ccc3ccccc3n2)c1C | 5.2 (≈ 14 µM) | – | Dde | Dde
